In this experiment the test system is PC-9-EGFR-Del19-T790M-C797S cells. Put plainly: proliferation inhibition on PC-9-EGFR-Del19-T790M-C797S cells, sulforhodamine B method (SRB method). The experiment is classed as cell-based. The conditions noted are these: Homo sapiens, in vitro proliferation inhibition, 72 hours culture, final concentrations 2500 to 0.01nM. The method, then: The in vitro proliferation inhibition activity of the compound on PC-9-EGFR-Del19-T790M-C797Slcells where Del19/T790M/C797S triple mutation exists in exogenously stably overexpressed EGFR protein of human non-small cell lung cancer PC-9 was determined by sulforhodamine B method (SRB method).
Cell source: PC-9-EGFR-Del19-T790M-C797S cells were purchased from Nanjing Cobioer Biosciences Co., Ltd.
PC-9-EGFR-Del19-T790M-C797S cells were cultured in an RPMI1640 complete medium containing puromycin (2µg/ml) and 10% fetal bovine serum. PC-9-EGFR-Del19-T790M-C797S cells in a logarithmic growth phase were taken, seeded in a 96-well plate at a cell density of 5000 cells/135µL complete culture medium/well, placed in a thermostatic incubator containing 5% CO2 at 37°C and cultured for 24 hours to ensure complete anchorage of cells. Each compound was dissolved in dimethyl sulfoxide (DMSO) in advance to prepare a 10mM stock solution, and then the compound was successively diluted with DMSO and the complete culture medium. […]
GraphPad Prism 8.3 software was used for data analysis, and non-linear S-curve regression was used for fitting the data to obtain a dose-effect curve, from which an IC50 value was calculated, and the results are shown in Table 1.
Background: The SRB assay estimates cell density from bound dye.

The term IC50 denotes the concentration that inhibits the measured activity by half. As to `C=CC(=O)Nc1cc(Nc2nccc(-c3cn(C)c4ccccc34)n2)c(OCC(F)(F)F)nc1N(C)CC[N+](C)(C)[O-]` [Compound V], the IC50 worked out at 564 nM.
